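These data come from cells grown in 96-well plates and exposed to compound for 48 hours at five concentrations. Abbreviation: GI50, concentration required for 50% inhibition of growth. TGI marks complete inhibition of growth.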
Legend:
Experiment in all cases: NCI-60 cell line screen, 48 h
SN12C renal = system: SN12C renal
ACHN renal = system: ACHN renal
SK-OV-3 ovarian = system: SK-OV-3 ovarian
SNB-75 CNS = system: SNB-75 CNS
RXF 393 renal = system: RXF 393 renal
EKVX NSCLC = system: EKVX NSCLC
SK-MEL-2 melanoma = system: SK-MEL-2 melanoma
SK-MEL-5 melanoma = system: SK-MEL-5 melanoma
SF-295 CNS = system: SF-295 CNS
786-0 renal = system: 786-0 renal

Row | SMILES | GI50 (SN12C renal) [µM] | TGI (SN12C renal) [µM] | GI50 (ACHN renal) [µM] | TGI (ACHN renal) [µM] | GI50 (SK-OV-3 ovarian) [µM] | TGI (SK-OV-3 ovarian) [µM] | TGI (SNB-75 CNS) [µM] | GI50 (RXF 393 renal) [µM] | TGI (RXF 393 renal) [µM] | GI50 (EKVX NSCLC) [µM] | TGI (EKVX NSCLC) [µM] | GI50 (SK-MEL-2 melanoma) [µM] | TGI (SK-MEL-2 melanoma) [µM] | GI50 (SK-MEL-5 melanoma) [µM] | TGI (SK-MEL-5 melanoma) [µM] | GI50 (SF-295 CNS) [µM] | TGI (SF-295 CNS) [µM] | GI50 (786-0 renal) [µM] | TGI (786-0 renal) [µM] | GI50 (SNB-75 CNS) [µM]
1 | COc1cc2c3c(n(CCCN(C)CCO)c(=O)c2cc1OC)-c1cc2c(cc1C3=O)OCO2 | 2.75 | > 100 | 0.277 | 4.33 | 11 | > 100 | > 58.5 | 27.4 | > 73.2 | > 44.4 | > 100 | > 100 | > 100 | 4.77 | 33.5 | 0.672 | > 100 | 2.92 | > 100 | –
2 | c1ccc(NCCSc2nc3ccccc3s2)cc1 | – | > 100 | – | > 100 | – | > 100 | > 100 | – | > 100 | – | > 100 | – | > 100 | – | 42.3 | – | > 100 | – | > 100 | –
3 | COc1cc(-c2nnc3n2NC=C(C(=O)O)S3)cc(OC)c1OC | – | > 100 | – | > 100 | – | > 100 | > 100 | – | > 100 | – | > 100 | – | > 100 | – | > 100 | – | > 100 | – | > 76.3 | –
4 | Cc1ccc2c(c1-c1ccccc1)C(=O)OC2 | – | > 100 | – | > 100 | – | > 100 | > 100 | – | > 100 | – | 43.4 | – | > 100 | – | > 100 | – | – | – | > 100 | –
5 | Clc1nc(Cl)c2ncn(Cc3ccccc3Cn3cnc4c(Cl)nc(Cl)nc43)c2n1 | 2.31 | 7.24 | 1.59 | 2.96 | 15.3 | 33.7 | 16.4 | 1.36 | 3.29 | 1.36 | 3.02 | 8.96 | 27.8 | 1.81 | 4.13 | 7.05 | 22.4 | 4.47 | 9.57 | 3.9
6 | Oc1ccc(Oc2cnc3ccccc3n2)cc1 | > 100 | > 100 | 76.6 | > 100 | > 100 | > 100 | > 100 | 34.3 | > 100 | 67 | > 100 | > 100 | > 100 | 55.7 | > 100 | 38.2 | > 100 | > 100 | > 100 | 60
7 | Cc1c2c(C(N)=O)nccc2c(C)c2c1c1ccccc1n2Cc1ccccc1 | – | 44.8 | – | 37.5 | – | 47.6 | 39.9 | – | 31.9 | – | > 100 | – | 43.3 | – | 67.5 | – | 31.2 | – | 15.9 | –
8 | CCOC(=O)C1=C(Nc2ccc(Br)cc2)OCC1=O | – | > 100 | – | > 100 | – | > 100 | > 100 | – | > 100 | – | > 100 | – | > 100 | – | > 100 | – | > 100 | – | > 100 | –
9 | COc1cc(C(=O)O[C@H](C(N)=O)[C@]2(C)CO2)c2cccc(C)c2c1 | < 0.01 | 0.245 | – | – | 1.45 | 7.99 | 4.13 | 0.148 | 1.1 | 0.35 | 4.61 | < 0.01 | 0.0478 | < 0.0158 | 0.0522 | < 0.0417 | 1.84 | 2.31 | 5.75 | 0.933
10 | O=C1c2ccccc2C(=O)c2c(NCCN=Cc3ccccc3O)cccc21 | 8.28 | > 54.1 | 3.4 | 16.3 | 3.54 | > 48.2 | 7.6 | 2.18 | 6.94 | 1.79 | 5.44 | 4.42 | 11.3 | 1.51 | 5.2 | 2.43 | 5.01 | 6.8 | 37.9 | 2.33
11 | CS(=O)(=O)CS(=O)(=O)OCCCl | – | 706 | – | 524 | – | 423 | 256 | – | 611 | – | 1080 | – | 856 | – | 777 | – | 554 | – | 514 | –
12 | Cn1cc(-c2csc(-c3cn(C)c4ccc(F)cc34)n2)c2cnccc21 | 1.7 | 3.14 | 1.84 | 3.26 | 2.03 | 3.75 | 2.74 | 1.61 | 3.05 | 1.87 | 3.7 | 1.79 | 3.38 | 1.66 | 3.05 | 1.71 | 3.23 | 1.51 | 2.96 | 1.4
13 | Cn1c(=S)c2[nH]c(SCCCc3ccccc3)nc2n(C)c1=O | – | > 100 | – | > 100 | – | > 100 | 84.5 | – | > 100 | – | 79.3 | – | > 100 | – | 33.5 | – | 79.9 | – | > 100 | –
14 | COc1ccc(-c2cc(Nc3ccnc(N4CCOCC4)n3)on2)cc1 | 0.7 | 16.6 | 0.74 | 13.6 | 0.351 | 22.5 | 0.576 | 0.16 | 0.564 | 0.685 | 17 | 0.457 | 29.5 | 0.189 | 2.07 | 0.171 | 5.95 | 0.376 | 8.4 | 0.1
15 | Cc1c(Cl)cccc1NC(=O)c1cccc([N+](=O)[O-])c1O | – | 97.4 | – | 62.5 | – | > 80.2 | 66.1 | – | 19.7 | – | > 87.6 | – | 36.9 | – | 15.5 | – | 65 | – | > 78.1 | –
16 | CNC(C)[C@H]1CCC2C3CC=C4C(=O)[C@@H](NC(=O)C=C(C)C)CC[C@]4(C)C3CC[C@@]21C (stereo partly specified) | 2.46 | 10.5 | 3.29 | 12.6 | 2.75 | 9.5 | 10.4 | 1.45 | 3.22 | 1.14 | 11.2 | 2.74 | 6.9 | 1.14 | 2.39 | 1.63 | 4.41 | 1.56 | 3.16 | 2.26
17 | Oc1ccc(/C=C/c2cc(O)cc3c2C(c2cc(O)cc(O)c2)C(c2ccc(O)c(O)c2)O3)cc1 (stereo unspecified) | – | > 100 | – | 33.8 | – | > 100 | > 100 | – | > 100 | – | > 100 | – | 74.8 | – | 34.7 | – | > 100 | – | > 100 | –
18 | C=CCn1c(SCC(=O)Nc2ccc(C(=O)/C=C/c3cc(OC)c(OC)c(OC)c3)cc2)nnc1-c1ccc(OC)cc1 | 0.839 | 19.1 | – | – | 1.21 | 9.96 | 9.19 | 0.377 | 1.41 | 1.33 | 64 | 2.1 | 15.4 | 0.79 | 2.27 | 0.9 | 4.88 | 0.583 | 2.61 | 0.311
19 | CC(C)(C)OC(=O)N1C2CCCC23O[C@@H]1c1cc2c(cc1C3=O)OCO2 (stereo partly specified) | – | > 100 | – | > 100 | – | 94 | 56.8 | – | 83.2 | – | > 100 | – | > 100 | – | 26.1 | – | 82.9 | – | > 100 | –
20 | CCOC(=O)C(C)(c1c(C)[nH]c2ccccc12)c1c(C)[nH]c2ccccc12 | – | – | – | 56.6 | – | 52.9 | 48.6 | – | 25.8 | – | > 100 | – | 38.4 | – | 31.1 | – | 29 | – | 43 | –
21 | C=C1C(O)C2C(=C(C)C13CC3)C(=O)C(C)(C)C2OC (stereo unspecified) | > 100 | > 100 | > 100 | > 100 | > 100 | > 100 | > 100 | > 100 | > 100 | > 100 | > 100 | > 100 | > 100 | 50.5 | > 100 | > 100 | > 100 | > 100 | > 100 | > 100
22 | COc1cc(/C=C/C(=O)C(C(=O)/C=C/c2ccc(OC(=O)CCNC34CC5CC(CC(C5)C3)C4)c(OC)c2)C(=O)CCNC23CC4CC(CC(C4)C2)C3)ccc1OC(=O)CCNC12CC3CC(CC(C3)C1)C2 (stereo unspecified) | 2.85 | 9.48 | 4.03 | 34.1 | 5.44 | 36.3 | 33.3 | 1.96 | 5.17 | 2.95 | 8.97 | 3.53 | > 100 | 3.36 | 13.4 | 17.2 | 34.4 | 4.19 | > 100 | 4.86
23 | Cc1cc(NCCCCNc2ccnc3cc(Cl)ccc23)nc(Nc2ccc(C(=O)N3CCCCC3)cc2)n1 | – | – | 3.01 | 9.28 | 2.78 | 6.13 | 3.29 | 1.24 | 2.73 | 2.97 | 10.8 | 2.05 | 3.9 | 1.7 | 3.07 | 1.67 | 3.25 | 1.42 | 2.97 | 1.72

Source: PubChem BioAssay (NCI)
